The record followed here is ChEMBL document CHEMBL1151367, “Catharanthus alkaloids. XXXVI. Isolation of vincaleukoblastine (VLB) and periformyline from Catharanthus trichophyllus and pericyclivine from Catharanthus roseus” (1981).

Assay [1] in a line: Cytotoxicity against human 9KB cells. In kind it is functional. Particulars: read-out: ED50 (the source's name).
Assay [2] deals with P388. Nature of the assay: Cytotoxicity against mouse P388 cells. In kind it is functional. Particulars: read-out: ED50 (the source's name).

The structures appear in SMILES notation. Converted amounts (≈) assume the structure as drawn.

For `C/C=C1/CN2CC[C@]34C(=C(C(=O)OC)[C@H]1C[C@H]23)Nc1ccccc14` [AKUAMMICINE], the EC50 in assay [1] amounted to 2.4 µg/mL (≈ 7.44 µM); in assay [2], 1.7 µg/mL (≈ 5.27 µM).
The corresponding values for `CC[C@]12CN3CCc4c([nH]c5ccccc45)[C@@](C(=O)OC)(c4cc5c(cc4OC)N(C)[C@H]4[C@@](O)(C(=O)OC)[C@H](OC(C)=O)[C@]6(CC)C=CCN7CC[C@]54[C@@H]76)C[C@H](C3)[C@H]1O2` [LEUROSINE] are 2.4 µg/mL (≈ 2.97 µM) and 1.7 µg/mL (≈ 2.1 µM).
For `CC[C@]1(O)C[C@@H]2CN(CCc3c([nH]c4ccccc34)[C@@](C(=O)OC)(c3cc4c(cc3OC)N(C)[C@H]3[C@@](O)(C(=O)OC)[C@H](OC(C)=O)[C@]5(CC)C=CCN6CC[C@]43[C@@H]65)C2)C1` [VINBLASTINE] the same measures were 2.4 µg/mL (≈ 2.96 µM) and 1.7 µg/mL (≈ 2.1 µM).
